From ChEMBL document CHEMBL1135459, “Novel class of potent 4-arylalkyl substituted 3-isoxazolol GABA(A) antagonists: synthesis, pharmacology, and molecular modeling” (J Med Chem, 2002)
pIC50, pKi: −log10 of the molar value.

What was measured:
Mus musculus [1] = organism: Mus musculus; experiment: Electrophysiology using Whole-cell patch-clamp recordings in mouse embryos; format: functional, organism-based
Mus musculus [2] = experiment: Convulsant effect in mice after subcutaneous (sc) administration; format: functional
Mus musculus [3] = experiment: Convulsant effect in mice after intracerebroventricular (icv) administration; format: functional; details: central
[4] = biological target: Gamma-aminobutyric acid type B receptor subunit 1 (Rattus norvegicus, UniProt Q9Z0U4); experiment: Affinity for GABA-B receptor by inhibiting GABA uptake into rat brain synaptosomes; format: subcellular
Chain of Gamma-aminobutyric acid type B receptor subunit 1 (Q9Z0U4 whole entry): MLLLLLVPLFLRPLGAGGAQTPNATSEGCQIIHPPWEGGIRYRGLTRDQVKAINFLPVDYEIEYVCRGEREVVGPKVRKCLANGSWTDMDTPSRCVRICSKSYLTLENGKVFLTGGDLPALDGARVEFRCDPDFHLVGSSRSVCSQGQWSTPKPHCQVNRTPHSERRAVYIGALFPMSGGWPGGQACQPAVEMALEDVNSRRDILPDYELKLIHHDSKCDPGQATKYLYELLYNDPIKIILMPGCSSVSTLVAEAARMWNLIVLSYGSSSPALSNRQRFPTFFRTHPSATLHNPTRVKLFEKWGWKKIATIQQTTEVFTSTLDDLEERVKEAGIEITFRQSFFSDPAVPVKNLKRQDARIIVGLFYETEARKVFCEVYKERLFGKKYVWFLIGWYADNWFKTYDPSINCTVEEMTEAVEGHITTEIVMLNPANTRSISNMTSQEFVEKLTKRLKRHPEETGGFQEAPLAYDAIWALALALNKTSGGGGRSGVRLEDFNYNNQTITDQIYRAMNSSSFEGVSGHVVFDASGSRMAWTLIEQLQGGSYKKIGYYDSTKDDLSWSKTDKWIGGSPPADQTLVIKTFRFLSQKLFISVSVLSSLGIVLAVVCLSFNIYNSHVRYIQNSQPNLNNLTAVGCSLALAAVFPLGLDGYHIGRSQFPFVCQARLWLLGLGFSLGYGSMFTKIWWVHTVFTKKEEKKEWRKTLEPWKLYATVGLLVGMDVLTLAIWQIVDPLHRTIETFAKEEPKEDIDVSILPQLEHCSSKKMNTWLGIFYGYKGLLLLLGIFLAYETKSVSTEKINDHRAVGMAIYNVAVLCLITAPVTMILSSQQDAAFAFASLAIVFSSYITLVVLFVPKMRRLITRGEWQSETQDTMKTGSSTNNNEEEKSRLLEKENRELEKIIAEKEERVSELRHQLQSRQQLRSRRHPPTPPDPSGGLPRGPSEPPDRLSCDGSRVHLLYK

[5] = biological target: GABA-A receptor; anion channel; experiment: Affinity for GABA-A receptor alpha by inhibiting binding of [3H]muscimol to rat brain synaptosomes; format: subcellular

| pIC50 [4] | pKi [5] | Structure (SMILES) | pIC50 (Mus musculus [1]) | ED50 (Mus musculus [2]) [µmol/kg] | ED50 (Mus musculus [3]) [µmol/kg] |
| --- | --- | --- | --- | --- | --- |
| < 5.00 |  | Oc1noc(C2CCNCC2)c1Cc1ccc2ccccc2c1 | 6.43 | > 51 | 0.024 |
| < 4.00 | 5.96 | Oc1noc(C2CCNCC2)c1CCCc1ccccc1 | 6.28 |  |  |
| < 5.00 | 5.30 | Oc1noc(C2CCNCC2)c1CCc1ccccc1 | 5.39 |  |  |
| < 4.00 |  | Oc1noc(C2CCNCC2)c1Cc1ccccc1 | 5.40 |  |  |
| < 5.00 |  | Oc1noc(C2CCNCC2)c1Cc1c2ccccc2cc2ccccc12 | 5.89 |  |  |
| < 4.00 | 4.43 | CC1(c2cc(O)no2)CCNCC1 |  |  |  |
| < 5.00 | 6.40 | Oc1noc(C2CCNCC2)c1Cc1ccc(-c2ccccc2)cc1 | 6.15 |  |  |
| < 5.00 | 7.00 | Oc1noc(C2CCNCC2)c1Cc1cccc2ccccc12 | 6.32 |  |  |
| < 5.00 | 7.17 | Oc1noc(C2CCNCC2)c1CCC(c1ccccc1)c1ccccc1 | 7.70 | > 45 | 0.21 |
| < 5.00 |  | Oc1noc(C2CCNCC2)c1CCc1ccc2ccccc2c1 | 6.05 |  |  |
| < 4.00 | 6.15 | Oc1noc(C2CCNCC2)c1CCCC(c1ccccc1)c1ccccc1 | 7.30 |  |  |
| < 5.00 | 5.77 | Oc1noc(C2CCNCC2)c1CCc1cccc2ccccc12 | 5.82 |  |  |
| < 4.00 | 5.31 | Oc1noc(C2CCNCC2)c1CC1CCCCC1 | 5.96 |  |  |
| < 4.00 | 6.44 | Oc1noc(C2CCNCC2)c1CC(c1ccccc1)c1ccccc1 | 6.09 |  |  |
| < 4.00 | 5.74 | CCCCCCCCc1c(O)noc1C1CCNCC1 | 6.36 |  |  |
| < 5.00 | 6.02 | Oc1noc(C2CCNCC2)c1C(c1ccccc1)c1ccccc1 | 6.11 |  |  |

| Structure (SMILES) | pIC50 [4] | pKi [5] | pIC50 (Mus musculus [1]) | ED50 (Mus musculus [2]) [µmol/kg] | ED50 (Mus musculus [3]) [µmol/kg] |
| --- | --- | --- | --- | --- | --- |
| CCCCc1c(O)noc1C1CCNCC1 | < 4.00 |  | 5.52 |  |  |
| CCCc1c(O)noc1C1CCNCC1 | < 4.00 | 5.18 | 5.34 |  |  |
| CCc1c(O)noc1C1CCNCC1 | < 4.00 |  | 4.99 |  |  |
| CCCCCCc1c(O)noc1C1CCNCC1 | < 4.00 | 5.35 | 5.96 |  |  |
| Cc1c(O)noc1C1CCNCC1 | < 4.00 |  | 4.59 |  |  |
